Measured values as given in ChEMBL document CHEMBL2380284, “X-ray crystal structures of the Escherichia coli RNA polymerase in complex with benzoxazinorifamycins” (J Med Chem, 2013).

Columns and labels:
[1] = Inhibition of rifamycin-resistant Mycobacterium tuberculosis RNA polymerase H445Y mutant after 10 mins by rolling circle transcription assay in presence of DNA nanocircle template NC45
[2] = Inhibition of rifamycin-resistant Mycobacterium tuberculosis RNA polymerase D435V mutant after 10 mins by rolling circle transcription assay in presence of DNA nanocircle template NC45
[3] = Inhibition of rifamycin-resistant Mycobacterium tuberculosis RNA polymerase S450L mutant after 10 mins by rolling circle transcription assay in presence of DNA nanocircle template NC45

CO[C@H]1/C=C/O[C@@]2(C)Oc3c(C)c(O)c4c(O)c(c(/C=N/N5CCN(C)CC5)c(O)c4c3C2=O)NC(=O)/C(C)=C\C=C\[C@H](C)[C@H](O)[C@@H](C)[C@@H](O)[C@@H](C)[C@H](OC(C)=O)[C@@H]1C [RIFAMPIN]
IC50 [1]: 610 µM
IC50 [2]: 465 µM
IC50 [3]: 109 µM
